The target of the assay is T1, SIRT1 (Homo sapiens, UniProt Q96EB6).
T1 sequence (Q96EB6 1-747): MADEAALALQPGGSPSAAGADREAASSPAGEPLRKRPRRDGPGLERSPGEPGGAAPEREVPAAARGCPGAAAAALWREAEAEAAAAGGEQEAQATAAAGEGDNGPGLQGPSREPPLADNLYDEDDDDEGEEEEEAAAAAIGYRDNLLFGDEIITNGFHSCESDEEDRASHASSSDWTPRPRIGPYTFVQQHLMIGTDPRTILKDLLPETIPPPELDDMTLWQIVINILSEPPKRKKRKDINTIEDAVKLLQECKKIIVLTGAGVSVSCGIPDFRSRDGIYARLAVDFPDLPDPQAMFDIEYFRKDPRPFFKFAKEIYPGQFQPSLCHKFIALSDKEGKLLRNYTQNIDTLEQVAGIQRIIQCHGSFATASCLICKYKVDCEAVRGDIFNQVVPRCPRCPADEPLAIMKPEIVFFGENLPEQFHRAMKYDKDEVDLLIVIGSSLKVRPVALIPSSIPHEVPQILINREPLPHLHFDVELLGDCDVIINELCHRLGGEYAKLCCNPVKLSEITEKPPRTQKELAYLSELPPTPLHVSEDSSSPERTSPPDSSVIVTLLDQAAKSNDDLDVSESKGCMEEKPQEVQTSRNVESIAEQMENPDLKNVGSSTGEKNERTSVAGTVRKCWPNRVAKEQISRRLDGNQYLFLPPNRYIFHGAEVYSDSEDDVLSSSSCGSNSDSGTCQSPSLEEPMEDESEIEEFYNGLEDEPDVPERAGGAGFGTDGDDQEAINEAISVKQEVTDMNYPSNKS
The experiment in a line: Mass spectrometry based assay to identify modulators of SIRT1 activity (deacetylation of p53-based acetylated peptide substrate). It counts as biochemical. Particulars: 10 nM SIRT1, 0.5 μM peptide substrate, 120 μM βNAD+, 25 minutes at 25° C.; for EC1.5: SIRT1 activation. The gist of the method: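 Activation measured on His-tagged SIRT1 (10 nM, E. coli-expressed) deacetylating a 0.5 μM p53-derived acetyl-peptide with 120 μM βNAD^+ for 25 min at 25 °C, pH 8 Tris-acetate. After formic acid stop, mass spectrometry quantified acetylated versus deacetylated peptide, referenced to DMSO and nicotinamide controls. Reported as EC1.5 and maximum fold activation.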

With `COCCN1CCN(CCOc2cc(C(=O)Nc3ccccc3-c3nc4cccnc4s3)nc(-c3ccccc3)c2)CC1` [Compound 12], the “FOLD ACT. (percent maximum fold activation)” value was “A (Fold activation≧300%)” and the EC1.5 entry is “A′ (EC1.5<250 nM)”.

For `CNCCN(C)c1cc(C(=O)Nc2ccccc2-c2nc3cccnc3s2)nc(-c2ccccc2)n1` [Compound 147], the “FOLD ACT. (percent maximum fold activation)” value is “A (Fold activation≧300%)” and the EC1.5 entry is “A′ (EC1.5<250 nM)”.

On to `CCN(CC)CCOc1cc(C(=O)Nc2ccccc2-c2nc3cccnc3s2)nc(-c2ccccc2)n1` [Compound 90], for which the “FOLD ACT. (percent maximum fold activation)” value is recorded as “A (Fold activation≧300%)”; the EC1.5 entry was “A (EC1.5≧250 nM and ≦1 uM)”.

With `CS(=O)(=O)NCCOc1cc(C(=O)Nc2ccccc2-c2nc3cccnc3s2)nc(-c2ccccc2)n1` [Compound 122], the “FOLD ACT. (percent maximum fold activation)” value is “B (Fold Activation≧150% and <300%)”; the EC1.5 result was “A (EC1.5≧250 nM and ≦1 uM)”.

On to `CC(C)CNc1cc(C(=O)Nc2ccccc2-c2nc3cccnc3s2)nc(-c2ccccc2)n1` [Compound 19], for which the “FOLD ACT. (percent maximum fold activation)” value is “C (Fold Activation<150%)” and the EC1.5 entry is “C (EC1.5>10 uM)”.

In the case of `CCN1CCN(c2cc(C(=O)Nc3ccccc3-c3nc4cccnc4s3)nc(-c3ccccc3)n2)CC1=O` [Compound 150], the “FOLD ACT. (percent maximum fold activation)” value is “A (Fold activation≧300%)”; the EC1.5 result is “A (EC1.5≧250 nM and ≦1 uM)”.

In the case of `Cl.O=C(Nc1ccccc1-c1nc2cccnc2s1)c1cc(NCCN2CCCC2)nc(-c2ccccc2)n1` [Compound 62], the “FOLD ACT. (percent maximum fold activation)” value is given as “A (Fold activation≧300%)” and the EC1.5 result is “A′ (EC1.5<250 nM)”.

Take `O=C(Nc1ccccc1-c1nc2cccnc2s1)c1cc(NCCN2CCNCC2)nc(-c2ccccc2)n1` [Compound 48]: the “FOLD ACT. (percent maximum fold activation)” value is given as “A (Fold activation≧300%)” and the EC1.5 entry is given as “A′ (EC1.5<250 nM)”.

With `O=C(Nc1ccccc1-c1nc2cccnc2s1)c1cc(NC2CCOC2=O)nc(-c2ccccc2)n1` (stereo not drawn) [Compound 91], the “FOLD ACT. (percent maximum fold activation)” value is “A (Fold activation≧300%)” and the EC1.5 result is listed as “A′ (EC1.5<250 nM)”.

Consider `O=C(Nc1ccccc1-c1nc2cccnc2s1)c1cc(NCc2cccnc2)nc(-c2ccccc2)n1` [Compound 58], for which the “FOLD ACT. (percent maximum fold activation)” value was “A (Fold activation≧300%)”; the EC1.5 entry is “A (EC1.5≧250 nM and ≦1 uM)”.

Consider `NCCCOc1cc(C(=O)Nc2ccccc2-c2nc3cccnc3s2)nc(-c2ccccc2)n1` [Compound 76], for which the “FOLD ACT. (percent maximum fold activation)” value is on record as “A (Fold activation≧300%)” and the EC1.5 result is recorded as “A′ (EC1.5<250 nM)”.

For the compound `CCCN1CCC(Nc2cc(C(=O)Nc3ccccc3-c3nc4cccnc4s3)nc(-c3ccccc3)n2)CC1` [Compound 101], the “FOLD ACT. (percent maximum fold activation)” value is on record as “A (Fold activation≧300%)” and the EC1.5 result is given as “A′ (EC1.5<250 nM)”.

Take `O=C(Nc1ccccc1-c1nc2cccnc2s1)c1cc(NC[C@H](O)CO)nc(-c2ccccc2)n1` [Compound 105]: the “FOLD ACT. (percent maximum fold activation)” value is listed as “A (Fold activation≧300%)” and the EC1.5 entry was “A′ (EC1.5<250 nM)”.

Take `COCCN(C)c1cc(C(=O)Nc2ccccc2-c2nc3cccnc3s2)nc(-c2ccccc2)n1` [Compound 47]: the “FOLD ACT. (percent maximum fold activation)” value was “A (Fold activation≧300%)” and the EC1.5 result is “A′ (EC1.5<250 nM)”.

As to `O=C(Nc1ccccc1-c1nc2cccnc2s1)c1cc(NC2CCCC2)nc(-c2ccccc2)n1` [Compound 20], the “FOLD ACT. (percent maximum fold activation)” value was “C (Fold Activation<150%)” and the EC1.5 entry was “C (EC1.5>10 uM)”.

Turning to `O=C(Nc1ccccc1-c1nc2cccnc2s1)c1cc(NCc2ccccn2)nc(-c2ccccc2)n1` [Compound 55], the “FOLD ACT. (percent maximum fold activation)” value is “B (Fold Activation≧150% and <300%)”; the EC1.5 entry was “A (EC1.5≧250 nM and ≦1 uM)”.

As to `C[C@@H]1CN(c2cc(C(=O)Nc3ccccc3-c3nc4cccnc4s3)nc(-c3ccccc3)n2)C[C@H](C)N1` [Compound 35], the “FOLD ACT. (percent maximum fold activation)” value is on record as “A (Fold activation≧300%)” and the EC1.5 entry is listed as “A′ (EC1.5<250 nM)”.

For `CC(C)N1CCN(c2cc(C(=O)Nc3ccccc3-c3nc4cccnc4s3)nc(-c3ccccc3)c2)CC1` [Compound 123], the “FOLD ACT. (percent maximum fold activation)” value was “A (Fold activation≧300%)” and the EC1.5 result is reported as “A′ (EC1.5<250 nM)”.

Regarding `CC(C)C(=O)N1CCC(Nc2cc(C(=O)Nc3ccccc3-c3nc4cccnc4s3)nc(-c3ccccc3)n2)CC1` [Compound 117], the “FOLD ACT. (percent maximum fold activation)” value was “A (Fold activation≧300%)” and the EC1.5 result is given as “A′ (EC1.5<250 nM)”.

For the compound `O=C(Nc1ccccc1-c1nc2ccncc2s1)c1cc(N2CCOCC2)nc(-c2ccccc2)n1` [Compound 22], the “FOLD ACT. (percent maximum fold activation)” value is reported as “A (Fold activation≧300%)”; the EC1.5 entry is “A (EC1.5≧250 nM and ≦1 uM)”.

For the compound `O=C(Nc1ccccc1-c1nc2cccnc2s1)c1cc(NCC2CCNCC2)nc(-c2ccccc2)n1` [Compound 82], the “FOLD ACT. (percent maximum fold activation)” value is on record as “A (Fold activation≧300%)” and the EC1.5 entry was “A′ (EC1.5<250 nM)”.

Turning to `COCCNc1cc(C(=O)Nc2ccccc2-c2nc3ccncc3s2)nc(-c2ccccc2)n1` [Compound 27], the “FOLD ACT. (percent maximum fold activation)” value is recorded as “A (Fold activation≧300%)”; the EC1.5 result is “A (EC1.5≧250 nM and ≦1 uM)”.

Turning to `CC(C)N1CCN(c2cc(C(=O)Nc3ccccc3-c3nc4cccnc4s3)nc(-c3ccccc3)n2)CC1.Cl` [Compound 65], the “FOLD ACT. (percent maximum fold activation)” value is “B (Fold Activation≧150% and <300%)”; the EC1.5 entry is recorded as “A′ (EC1.5<250 nM)”.

Take `O=C(Nc1ccccc1-c1nc2cccnc2s1)c1cc(NC2CCN(C(=O)c3ccccc3)CC2)nc(-c2ccccc2)n1` [Compound 136]: the “FOLD ACT. (percent maximum fold activation)” value is “B (Fold Activation≧150% and <300%)”; the EC1.5 entry is “A (EC1.5≧250 nM and ≦1 uM)”.

Turning to `O=C(Nc1ccccc1-c1nc2cccnc2s1)c1cc(OCCN2CCS(=O)(=O)CC2)cc(-c2ccccc2)n1` [Compound 7], the “FOLD ACT. (percent maximum fold activation)” value was “A (Fold activation≧300%)” and the EC1.5 entry is listed as “A′ (EC1.5<250 nM)”.

Turning to `NCCCCCNc1cc(C(=O)Nc2ccccc2-c2nc3cccnc3s2)nc(-c2ccccc2)n1` [Compound 86], the “FOLD ACT. (percent maximum fold activation)” value is “A (Fold activation≧300%)” and the EC1.5 result is “A′ (EC1.5<250 nM)”.

As to `COCCNc1cc(C(=O)Nc2ccccc2-c2nc3cccnc3s2)nc(-c2ccccc2)c1` [Compound 131], the “FOLD ACT. (percent maximum fold activation)” value was “A (Fold activation≧300%)” and the EC1.5 entry was “A′ (EC1.5<250 nM)”.

For the compound `CN(C)CCN(C)c1cc(C(=O)Nc2ccccc2-c2nc3cccnc3s2)nc(-c2ccccc2)n1` [Compound 145], the “FOLD ACT. (percent maximum fold activation)” value is listed as “A (Fold activation≧300%)” and the EC1.5 result is on record as “A′ (EC1.5<250 nM)”.

`O=C(Nc1ccccc1-c1nc2cccnc2s1)c1ccc(CN2CCOCC2)c(-c2ccccc2)n1` [Compound 77]: the “FOLD ACT. (percent maximum fold activation)” value was “B (Fold Activation≧150% and <300%)”; the EC1.5 result was “A (EC1.5≧250 nM and ≦1 uM)”.

For the compound `O=C1CN(c2cc(C(=O)Nc3ccccc3-c3nc4cccnc4s3)nc(-c3ccccc3)n2)CCN1` [Compound 149], the “FOLD ACT. (percent maximum fold activation)” value is “B (Fold Activation≧150% and <300%)”; the EC1.5 result is “A (EC1.5≧250 nM and ≦1 uM)”.

For `Cc1cccc(-c2nc(NCCN3CCOCC3)cc(C(=O)Nc3ccccc3-c3nc4cccnc4s3)n2)c1` [Compound 133], the “FOLD ACT. (percent maximum fold activation)” value was “A (Fold activation≧300%)” and the EC1.5 entry is reported as “A′ (EC1.5<250 nM)”.

`O=C(Nc1ccccc1-c1nc2cccnc2s1)c1cc(OCCO)nc(-c2ccccc2)n1` [Compound 80]: the “FOLD ACT. (percent maximum fold activation)” value is “C (Fold Activation<150%)” and the EC1.5 result was “C (EC1.5>10 uM)”.

As for `CCCCNc1cc(C(=O)Nc2ccccc2-c2nc3cccnc3s2)nc(-c2ccccc2)n1` [Compound 42], the “FOLD ACT. (percent maximum fold activation)” value is listed as “C (Fold Activation<150%)” and the EC1.5 entry was “C (EC1.5>10 uM)”.

For `Cc1cccc(-c2nc(OC[C@@H](O)CO)cc(C(=O)Nc3ccccc3-c3nc4cccnc4s3)n2)c1` [Compound 142], the “FOLD ACT. (percent maximum fold activation)” value was “A (Fold activation≧300%)”; the EC1.5 entry is “A (EC1.5≧250 nM and ≦1 uM)”.

For `CS(=O)(=O)N1CCC(Nc2cc(C(=O)Nc3ccccc3-c3nc4cccnc4s3)nc(-c3ccccc3)n2)CC1` [Compound 135], the “FOLD ACT. (percent maximum fold activation)” value is listed as “A (Fold activation≧300%)” and the EC1.5 result is listed as “A′ (EC1.5<250 nM)”.

Turning to `O=C(Nc1ccccc1-c1nc2cccnc2s1)c1cc(NC2CCNCC2)nc(-c2ccccc2)n1` [Compound 49], the “FOLD ACT. (percent maximum fold activation)” value was “A (Fold activation≧300%)” and the EC1.5 entry is listed as “A′ (EC1.5<250 nM)”.
